# Article PMC10618743 (Cancer Discovery, 2023)
# What was measured:
# SKBR3 cells = assay: Cell viability CellTiter-Glo; format: cell-based; details: Homo sapiens, SK-BR-3; SKBR3, WT PI3Kα; 72 hours; read-out: CTGlo GMean GI50 (95% CI)
# Method: (§1) Cell viability was measured using CellTiter-Glo (Promega, #G9243). Indicated cell lines were seeded according to Supplementary Table S3 in 50 μL of media in 384-well plates, with 72 hours of treatment at 37°C with 5% CO2.
# NCIH1048 cells = assay: Cell viability CellTiter-Glo; format: cell-based; details: Homo sapiens, NCI-H1048; NCIH1048, H1047R + K111R; 72 hours; read-out: CTGlo GMean GI50 (95% CI)
# Method: as §1
# HCC1954 cells = assay: Cell viability CellTiter-Glo; format: cell-based; details: Homo sapiens; HCC1954, H1047R; 72 hours; read-out: CTGlo GMean GI50 (95% CI)
# Method: as §1
# BT20 cells = assay: Cell viability CellTiter-Glo; format: cell-based; details: Homo sapiens, BT-20; BT20, H1047R + P539R; 72 hours; read-out: CTGlo GMean GI50 (95% CI)
# Method: as §1
# CAL148 cells = assay: Cell viability CellTiter-Glo; format: cell-based; details: Homo sapiens, CAL-148; CAL148, H1047R + D350N; 72 hours; read-out: CTGlo GMean GI50 (95% CI)
# Method: as §1
# OAW42 cells = assay: Cell viability CellTiter-Glo; format: cell-based; details: Homo sapiens, OAW-42; OAW42, H1047L; 72 hours; read-out: CTGlo GMean GI50 (95% CI)
# Method: as §1
# EFM19 cells = assay: Cell viability CellTiter-Glo; format: cell-based; details: Homo sapiens, EFM-19; EFM19, H1047L; 72 hours; read-out: CTGlo GMean GI50 (95% CI)
# Method: as §1
# GP2D cells = assay: Cell viability CellTiter-Glo; format: cell-based; details: Homo sapiens, H1047L, 72 hours, read-out: CTGlo GMean GI50 (95% CI)
# Method: as §1
# CAL33 cells = assay: Cell viability CellTiter-Glo; format: cell-based; details: Homo sapiens, CAL-33; CAL33, H1047R; 72 hours; read-out: CTGlo GMean GI50 (95% CI)
# Method: as §1
# T47D cells = assay: Cell viability CellTiter-Glo; format: cell-based; details: Homo sapiens, H1047R, 72 hours, read-out: CTGlo GMean GI50 (95% CI)
# Method: as §1
# DETROIT562 cells = assay: Cell viability CellTiter-Glo; format: cell-based; details: Homo sapiens, Detroit 562; DETROIT562, H1047R; 72 hours; read-out: CTGlo GMean GI50 (95% CI)
# Method: as §1
# [1] = tested on: PI3Kα-mutant, ER+HER2- metastatic breast cancer; details: alpelisib in combination with fulvestrant, median follow-up 20 months; cited from earlier work
# [2] = patients; cited from earlier work
smiles,measurement,setting,value
Cc1nc(NC(=O)N2CCC[C@H]2C(N)=O)sc1-c1ccnc(C(C)(C)C(F)(F)F)c1 [alpelisib],GI50,SKBR3 cells,335 nM
same,GI50,NCIH1048 cells,67 nM
same,GI50,HCC1954 cells,384 nM
same,GI50,BT20 cells,516 nM
same,GI50,CAL148 cells,962 nM
same,GI50,OAW42 cells,601 nM
same,GI50,EFM19 cells,127 nM
same,GI50,GP2D cells,298 nM
same,GI50,CAL33 cells,340 nM
same,GI50,T47D cells,334 nM
same,GI50,DETROIT562 cells,436 nM
same,progression-free survival time,[1],11.0 months
same,rate of permanent discontinuations,[2],≤ 46%
same,rate of safety-related dose reduction,[2],up to 42%
